# Activity calls are given as the source filed them. The calls are words filed in the database; no cut-off is given here.
# Legend:
# [1] = test system: Trypanosoma brucei brucei; experiment: Trypanocidal activity against Trypanosoma brucei brucei 427 bloodstream forms infected in mouse L1210 cells after 48 hrs; format: functional, organism-based; details: Trypanosoma brucei, 427, L1210, 48 h
# L1210 = experiment: Cytotoxicity against mouse L1210 cells; format: cell-based
# [2] = Therapeutic index, EC50 for mouse L1210 cells to EC50 for bloodstream-form Trypanosoma brucei brucei 427; format: cell-based; details: read-out: Ratio EC50
# [3] = test system: Trypanosoma brucei brucei; experiment: Inhibition of Trypanosoma brucei brucei 427 bloodstream form DNA synthesis assessed as inhibition of [3H]thymidine incorporation at 5 uM by liquid scintillation counting; format: functional
# [4] = test system: Trypanosoma brucei brucei; experiment: Inhibition of Trypanosoma brucei brucei 427 bloodstream forms topoisomerase 1B in assessed as formation of enzyme-DNA cleavable complex at 5 uM
# [5] = test system: Trypanosoma brucei brucei; experiment: Antitrypanosomal activity against Trypanosoma brucei brucei 427 bloodstream forms infected in CD1 mouse assessed as reduction in parasite load at 50 mg/kg, ip after 4 days; format: functional, organism-based; design: dose 50 mg/kg
# [6] = test system: Trypanosoma brucei brucei; experiment: Inhibition of Trypanosoma brucei brucei 427 bloodstream form DNA synthesis assessed as inhibition of [3H]thymidine incorporation at 10 uM by liquid scintillation counting; format: functional
# [7] = test system: Trypanosoma brucei brucei; experiment: Inhibition of Trypanosoma brucei brucei 427 bloodstream forms topoisomerase 1B in assessed as formation of enzyme-DNA cleavable complex at 10 uM
Compound,EC50 [1] [nM],EC50 (L1210) [nM],selectivity ratio [2],inhibition at 5 µM [3] [%],inhibition [4] [%],also measured
COc1cc2c3c(n(CCCn4ccnc4)c(=O)c2cc1OC)-c1ccccc1C3=O,350,–,–,–,–,–
COc1cc2c3c(n(CCCNCCCCN)c(=O)c2cc1OC)-c1cc2c(cc1C3=O)OCO2,990,250,4.3,56,7,–
COc1cc2c3c(n(CCCN)c(=O)c2cc1OC)-c1ccccc1C3=O,130,2800,4.3,67,4,–
NCCCn1c2c(c3ccc([N+](=O)[O-])cc3c1=O)C(=O)c1ccccc1-2,140,–,–,–,–,–
COc1cc2c3c(n(CCCNCCNCCCN)c(=O)c2cc1OC)-c1cc2c(cc1C3=O)OCO2,650,280,4,44,11,–
COc1cc2c3c(n(CCCn4ccnc4)c(=O)c2cc1OC)-c1cc2c(cc1C3=O)OCO2 [INDIMITECAN],60,–,–,–,–,–
NCCCn1c2c(c3ccc([N+](=O)[O-])cc3c1=O)C(=O)c1cc(F)ccc1-2,80,–,–,–,–,–
COc1cc2c3c(n(CCCN)c(=O)c2cc1OC)-c1ccc(C#N)cc1C3=O,350,970,2.8,69,3,–
NCCCn1c2c(c3ccc(Br)cc3c1=O)C(=O)c1cc3c(cc1-2)OCO3,160,–,–,–,–,–
NCCCn1c2c(c3ccccc3c1=O)C(=O)c1ccccc1-2,380,–,–,–,–,–
COc1cc2c3c(n(CCCNCCCNCCN)c(=O)c2cc1OC)-c1cc2c(cc1C3=O)OCO2,970,–,–,–,–,–
COc1ccc2c(c1)C(=O)c1c-2n(CCCN)c(=O)c2cc(OC)c(OC)cc12,50,4300,5.6,68,3,inhibition [5]: Active
COC(=O)c1ccc2c(c1)C(=O)c1c-2n(CCCN)c(=O)c2cc(OC)c(OC)cc12,170,2600,2.5,66,12,–
COc1cc2c(cc1OC)-c1c(c3ccc([N+](=O)[O-])cc3c(=O)n1CCCN)C2=O,140,–,–,–,–,–
COc1ccc2c(c1)C(=O)c1c-2n(CCCN)c(=O)c2ccccc12,140,–,–,–,–,–
NCCCn1c2c(c3ccc([N+](=O)[O-])cc3c1=O)C(=O)c1cc3c(cc1-2)OCO3,50,–,–,–,–,–
COc1ccc2c(c1)C(=O)c1c-2n(CCCN)c(=O)c2cc([N+](=O)[O-])ccc12,60,–,–,–,–,–
NCCCn1c2c(c3ccccc3c1=O)C(=O)c1cc3c(cc1-2)OCO3,60,–,–,–,–,–
COc1cc2c3c(n(CCCN)c(=O)c2cc1OC)-c1cc2c(cc1C3=O)OCO2,120,420,2.1,61,4,–
CC[C@@]1(O)C(=O)OCc2c1cc1n(c2=O)Cc2cc3ccccc3nc2-1 [CAMPTOTHECIN],–,–,–,–,–,inhibition at 10 µM [6]: 27%; inhibition [7]: 61%
O=C1c2ccccc2-c2c1c1ccccc1c(=O)n2CCCn1ccnc1,4200,–,–,–,–,–
COc1cc2c3c(n(CCCNCCCNCCCNCCCN)c(=O)c2cc1OC)-c1cc2c(cc1C3=O)OCO2,1500,510,1.9,34,10,–
O=C1c2ccccc2-c2c1c1ccc([N+](=O)[O-])cc1c(=O)n2CCCn1ccnc1,200,–,–,–,–,–

# Reference: ChEMBL document CHEMBL1629562, “Activity of indenoisoquinolines against African trypanosomes” (Antimicrob Agents Chemother, 2009)
